Laboratory results from ChEMBL document CHEMBL3044778, “Lethal and sublethal effects of buprofezin and imidacloprid on the whitefly parasitoid Encarsia inaron (Hymenoptera: Aphelinidae)” (2012).
Values after ≈ are worked out from the molar mass of the structure shown. Active and inactive are the calls of the source. No cut-off for these calls is given here.

Key:
Encarsia inaron [1] = assay: Insecticidal activity against Encarsia inaron treated at pupal stages at 62.5 ppm assessed as insect longevity (reference value: 8.7 days); assay type: functional, Pupal stage
Encarsia inaron [2] = assay: Insecticidal activity against Encarsia inaron treated at larval stages at 62.5 ppm assessed as insect longevity (reference value: 5.60 days); assay type: functional, Larval stage
Encarsia inaron [3] = assay: Insecticidal activity against Encarsia inaron adults reared on compound treated freshly cut cucumber leaves assessed as induction if insect mortality measured 48 hr post compound treatment; assay type: functional
Encarsia inaron [4] = assay: Insecticidal activity against Encarsia inaron infested cucumber plants assessed as adult parasitoid emergence from parasitised host nymphs treated at pupae stages at 350 g ai/L SC measured 10 days post compound treatment (reference value: 79.60 %); assay type: functional
Encarsia inaron [5] = assay: Insecticidal activity against Encarsia inaron infested cucumber plants assessed as adult parasitoid emergence from parasitised host nymphs treated at larval stages at 350 g ai/L SC measured 10 days post compound treatment (reference value: 79.60 %); assay type: functional, Larval stage
Encarsia inaron [6] = assay: Insecticidal activity against Encarsia inaron treated at adult stages assessed as intrinsic rate of increase at 23.37 ppm; assay type: functional, organism-based
Encarsia inaron [7] = assay: Insecticidal activity against Encarsia inaron treated at adult stages assessed as increase in net reproductive rate at 23.37 ppm; assay type: functional, organism-based
Encarsia inaron [8] = assay: Insecticidal activity against Encarsia inaron treated at adult stages assessed as doubling time at 23.37 ppm; assay type: functional, organism-based
Encarsia inaron [9] = assay: Insecticidal activity against Encarsia inaron treated at adult stages assessed as mean generation time at 23.37 ppm; assay type: functional, organism-based
Encarsia inaron [10] = assay: Insecticidal activity against Encarsia inaron treated at adult stages assessed as finite rate of increase at 23.37 ppm; assay type: functional, organism-based
Encarsia inaron [11] = assay: Insecticidal activity against Encarsia inaron treated at pupal stages assessed as mean generation time at 62.5 ppm; assay type: functional, organism-based; conditions: Pupal stage
Encarsia inaron [12] = assay: Insecticidal activity against Encarsia inaron treated at pupal stages assessed as net reproductive rate at 62.5 ppm; assay type: functional, organism-based; conditions: Pupal stage
Encarsia inaron [13] = assay: Insecticidal activity against Encarsia inaron treated at pupal stages assessed as finite rate increase at 62.5 ppm; assay type: functional, organism-based; conditions: Pupal stage
Encarsia inaron [14] = assay: Insecticidal activity against Encarsia inaron treated at pupal stages assessed as intrinsic rate of increase at 62.5 ppm; assay type: functional, organism-based; conditions: Pupal stage
Encarsia inaron [15] = assay: Insecticidal activity against Encarsia inaron treated at adult stages at 23.37 ppm assessed as insect total fecundity; assay type: functional, organism-based
Encarsia inaron [16] = assay: Insecticidal activity against Encarsia inaron treated at pupal stages at 62.5 ppm assessed as insect total fecundity; assay type: functional, organism-based; conditions: Pupal stage
Encarsia inaron [17] = assay: Insecticidal activity against Encarsia inaron treated at larval stages at 62.5 ppm assessed as insect total fecundity; assay type: functional, organism-based; conditions: Larval stage
Encarsia inaron [18] = assay: Insecticidal activity against Encarsia inaron treated at adult stages at 23.37 ppm assessed as insect longevity (reference value: 8.95 days); assay type: functional
Encarsia inaron [19] = assay: Insecticidal activity against Encarsia inaron treated at larval stages assessed as mean generation time at 62.5 ppm; assay type: functional, organism-based; conditions: Larval stage
Encarsia inaron [20] = assay: Insecticidal activity against Encarsia inaron treated at larval stages assessed as finite rate of increase at 62.5 ppm; assay type: functional, organism-based; conditions: Larval stage
Encarsia inaron [21] = assay: Insecticidal activity against Encarsia inaron treated at larval stages assessed as intrinsic rate of increase at 62.5 ppm; assay type: functional, organism-based; conditions: Larval stage
Encarsia inaron [22] = assay: Insecticidal activity against Encarsia inaron treated at larval stages assessed as increase in net reproductive rate at 62.5 ppm; assay type: functional, organism-based; conditions: Larval stage
Encarsia inaron [23] = assay: Insecticidal activity against Encarsia inaron treated at adult stages at 23.37 ppm assessed as sex ratio (reference value: 0.72 no unit); assay type: functional
Encarsia inaron [24] = assay: Insecticidal activity against Encarsia inaron treated at pupal stages at 62.5 ppm assessed as sex ratio (reference value: 0.68 no unit); assay type: functional, Pupal stage
Encarsia inaron [25] = assay: Insecticidal activity against Encarsia inaron treated at larval stages at 62.5 ppm assessed as sex ratio (reference value: 0.72 no unit); assay type: functional, Larval stage
Encarsia inaron [26] = assay: Insecticidal activity against Encarsia inaron treated at adult stages at 23.37 ppm assessed as insects eggs level per day (reference value: 2.33 egg/day); assay type: functional
Encarsia inaron [27] = assay: Insecticidal activity against Encarsia inaron treated at pupal stages at 62.5 ppm assessed as insects eggs level per day (reference value: 2.37 egg/day); assay type: functional, Pupal stage
Encarsia inaron [28] = assay: Insecticidal activity against Encarsia inaron treated at larval stages at 62.5 ppm assessed as insects eggs level per day (reference value: 2.98 egg/day); assay type: functional, Larval stage
Encarsia inaron [29] = assay: Insecticidal activity against Encarsia inaron treated at pupal stages at 2000 ppm assessed as insect longevity (reference value: 8.7 days); assay type: functional, Pupal stage
Encarsia inaron [30] = assay: Insecticidal activity against Encarsia inaron treated at larval stages at 31.25 ppm assessed as insect longevity (reference value: 5.60 days); assay type: functional, Larval stage
Encarsia inaron [31] = assay: Insecticidal activity against Encarsia inaron infested cucumber plants assessed as adult parasitoid emergence from parasitised host nymphs treated at pupae stages at 400 g ai/L SC measured 10 days post compound treatment (reference value: 79.60 %); assay type: functional
Encarsia inaron [32] = assay: Insecticidal activity against Encarsia inaron infested cucumber plants assessed as adult parasitoid emergence from parasitised host nymphs treated at larval stages at 400 g ai/L SC measured 10 days post compound treatment (reference value: 79.60 %); assay type: functional, Larval stage
Encarsia inaron [33] = assay: Insecticidal activity against Encarsia inaron treated at pupal stages assessed as mean generation time at 2000 ppm; assay type: functional, organism-based; conditions: Pupal stage
Encarsia inaron [34] = assay: Insecticidal activity against Encarsia inaron treated at adult stages assessed as doubling time at 2000 ppm; assay type: functional, organism-based
Encarsia inaron [35] = assay: Insecticidal activity against Encarsia inaron treated at adult stages assessed as mean generation time at 2000 ppm; assay type: functional, organism-based
Encarsia inaron [36] = assay: Insecticidal activity against Encarsia inaron treated at adult stages assessed as finite rate of increase at 2000 ppm; assay type: functional, organism-based
Encarsia inaron [37] = assay: Insecticidal activity against Encarsia inaron treated at adult stages assessed as intrinsic rate of increase at 2000 ppm; assay type: functional, organism-based
Encarsia inaron [38] = assay: Insecticidal activity against Encarsia inaron treated at adult stages assessed as increase in net reproductive rate at 2000 ppm; assay type: functional, organism-based
Encarsia inaron [39] = assay: Insecticidal activity against Encarsia inaron treated at pupal stages assessed as net reproductive rate at 2000 ppm; assay type: functional, organism-based; conditions: Pupal stage
Encarsia inaron [40] = assay: Insecticidal activity against Encarsia inaron treated at pupal stages assessed as finite rate increase at 2000 ppm; assay type: functional, organism-based; conditions: Pupal stage
Encarsia inaron [41] = assay: Insecticidal activity against Encarsia inaron treated at pupal stages assessed as intrinsic rate of increase at 2000 ppm; assay type: functional, organism-based; conditions: Pupal stage
Encarsia inaron [42] = assay: Insecticidal activity against Encarsia inaron treated at larval stages assessed as mean generation time at 31.25 ppm; assay type: functional, organism-based; conditions: Larval stage
Encarsia inaron [43] = assay: Insecticidal activity against Encarsia inaron treated at larval stages assessed as finite rate of increase at 31.25 ppm; assay type: functional, organism-based; conditions: Larval stage
Encarsia inaron [44] = assay: Insecticidal activity against Encarsia inaron treated at larval stages assessed as intrinsic rate of increase at 31.25 ppm; assay type: functional, organism-based; conditions: Larval stage
Encarsia inaron [45] = assay: Insecticidal activity against Encarsia inaron treated at adult stages at 2000 ppm assessed as insect total fecundity; assay type: functional, organism-based
Encarsia inaron [46] = assay: Insecticidal activity against Encarsia inaron treated at pupal stages at 2000 ppm assessed as insect total fecundity; assay type: functional, organism-based; conditions: Pupal stage
Encarsia inaron [47] = assay: Insecticidal activity against Encarsia inaron treated at larval stages at 31.25 ppm assessed as insect total fecundity; assay type: functional, organism-based; conditions: Larval stage
Encarsia inaron [48] = assay: Insecticidal activity against Encarsia inaron treated at adult stages at 2000 ppm assessed as insect longevity (reference value: 8.95 days); assay type: functional
Encarsia inaron [49] = assay: Insecticidal activity against Encarsia inaron treated at larval stages assessed as increase in net reproductive rate at 31.25 ppm; assay type: functional, organism-based; conditions: Larval stage
Encarsia inaron [50] = assay: Insecticidal activity against Encarsia inaron treated at adult stages at 2000 ppm assessed as sex ratio (reference value: 0.72 no unit); assay type: functional
Encarsia inaron [51] = assay: Insecticidal activity against Encarsia inaron treated at pupal stages at 2000 ppm assessed as sex ratio (reference value: 0.68 no unit); assay type: functional, Pupal stage
Encarsia inaron [52] = assay: Insecticidal activity against Encarsia inaron treated at larval stages at 31.25 ppm assessed as sex ratio (reference value: 0.72 no unit); assay type: functional, Larval stage
Encarsia inaron [53] = assay: Insecticidal activity against Encarsia inaron treated at adult stages at 2000 ppm assessed as insects eggs level per day (reference value: 2.33 egg/day); assay type: functional
Encarsia inaron [54] = assay: Insecticidal activity against Encarsia inaron treated at pupal stages at 2000 ppm assessed as insects eggs level per day (reference value: 2.37 egg/day); assay type: functional, Pupal stage
Encarsia inaron [55] = assay: Insecticidal activity against Encarsia inaron treated at larval stages at 31.25 ppm assessed as insects eggs level per day (reference value: 2.98 egg/day); assay type: functional, Larval stage

`O=[N+]([O-])/N=C1\NCCN1Cc1ccc(Cl)nc1` [IMIDACLOPRID] showed a Time (Encarsia inaron [1]) of 6.7 days, a Time (Encarsia inaron [2]) of 13.2 days and an LC10 (Encarsia inaron [3]) of 3.3 ppm. The LC90 (Encarsia inaron [3]) was 13407 ppm, the LC50 (Encarsia inaron [3]; Encarsia inaron, 48 h) was 209 µg/mL (≈ 817 µM) and the Activity (Encarsia inaron [4]) was 15%. The Activity (Encarsia inaron [5]) was 7%, the Activity (Encarsia inaron [6]) was “inactive” and the Activity (Encarsia inaron [7]) was “inactive”. For the same compound, the Activity (Encarsia inaron [8]) was “inactive”, the Activity (Encarsia inaron [9]) was “inactive” and the Activity (Encarsia inaron [10]) was “inactive”. The Activity (Encarsia inaron [11]) was “Active”, the Activity (Encarsia inaron [12]) was “Active” and the Activity (Encarsia inaron [13]) was “inactive”. For the same compound, the Activity (Encarsia inaron [14]) was “inactive”, the Activity (Encarsia inaron [15]) was “Active” and the Activity (Encarsia inaron [16]) was “Active”. The Activity (Encarsia inaron [17]) was “Active”, the Time (Encarsia inaron [18]) was 6.85 days and the Activity (Encarsia inaron [19]) was “Active”. The Activity (Encarsia inaron [20]) was “Active”, the Activity (Encarsia inaron [21]) was “Active” and the Activity (Encarsia inaron [22]) was “Active”. For the same compound, the Ratio (Encarsia inaron [23]) was 0.52, the Ratio (Encarsia inaron [24]) was 0.59 and the Ratio (Encarsia inaron [25]) was 0.54. For the same compound, the Activity (Encarsia inaron [26]) was 4.75 day⁻¹, the Activity (Encarsia inaron [27]) was 2.77 day⁻¹ and the Activity (Encarsia inaron [28]) was 5.44 day⁻¹.
In the case of `CC(C)N1C(=O)N(c2ccccc2)CS/C1=N\C(C)(C)C` [BUPROFEZIN], the Time (Encarsia inaron [29]) is reported as 8.5 days, the Time (Encarsia inaron [30]) is reported as 7.05 days and the LC50 (Encarsia inaron [3]) is reported as “inactive”. The Activity (Encarsia inaron [31]) was 63.4%, the Activity (Encarsia inaron [32]) was 2.6% and the Activity (Encarsia inaron [33]) was “Active”. The Activity (Encarsia inaron [34]) was “inactive”, the Activity (Encarsia inaron [35]) was “inactive” and the Activity (Encarsia inaron [36]) was “inactive”. For the same compound, the Activity (Encarsia inaron [37]) was “inactive”, the Activity (Encarsia inaron [38]) was “inactive” and the Activity (Encarsia inaron [39]) was “Active”. The Activity (Encarsia inaron [40]) was “inactive”, the Activity (Encarsia inaron [41]) was “inactive” and the Activity (Encarsia inaron [42]) was “inactive”. For the same compound, the Activity (Encarsia inaron [43]) was “inactive”, the Activity (Encarsia inaron [44]) was “inactive” and the Activity (Encarsia inaron [45]) was “inactive”. The Activity (Encarsia inaron [46]) was “inactive”, the Activity (Encarsia inaron [47]) was “inactive” and the Time (Encarsia inaron [48]) was 8.9 days. For the same compound, the Activity (Encarsia inaron [49]) was “inactive”, the Ratio (Encarsia inaron [50]) was 0.44 and the Ratio (Encarsia inaron [51]) was 0.44. It also gave a Ratio (Encarsia inaron [52]) of 0.49, an Activity (Encarsia inaron [53]) of 4.58 day⁻¹ and an Activity (Encarsia inaron [54]) of 1.24 day⁻¹. The Activity (Encarsia inaron [55]) was 3.55 day⁻¹.
